In one test the target is T1, Lp-PLA2 in rabbit serum (Oryctolagus cuniculus, UniProt G1SE06).
T1 construct: from tissue; host or cells: rabbit serum
T1 sequence (G1SE06 22-423): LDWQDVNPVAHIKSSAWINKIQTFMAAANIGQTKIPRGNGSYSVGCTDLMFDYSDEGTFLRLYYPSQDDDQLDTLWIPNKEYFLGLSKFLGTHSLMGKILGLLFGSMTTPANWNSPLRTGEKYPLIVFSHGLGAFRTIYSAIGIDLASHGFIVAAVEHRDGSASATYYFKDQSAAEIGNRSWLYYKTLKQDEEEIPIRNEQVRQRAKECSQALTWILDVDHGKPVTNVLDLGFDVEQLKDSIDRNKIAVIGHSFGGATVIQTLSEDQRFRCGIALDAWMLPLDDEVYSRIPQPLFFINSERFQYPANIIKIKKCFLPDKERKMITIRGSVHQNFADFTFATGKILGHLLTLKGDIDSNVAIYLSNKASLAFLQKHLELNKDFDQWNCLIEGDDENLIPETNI
As to the kind of experiment: In vitro inhibitory activity towards the enzyme Lp-PLA2 in rabbit serum, [3H]PAF substrate. The format is biochemical. The method, then:
(§1) The activities of compounds were measured using [^3H] labeled platelet activating factor ([^3H]PAF, Perkinelmer, Lot NET910) as the substrate. The reaction was carried out in a system containing 50 mmol/L HEPES and 150 mmol/L NaCl (pH 7.4) in a total volume of 200 μl. First, 10 μL rabbit serum and 10 μl DMSO solution of the test compound were added to the system and preincubated for 10 min at 37° C. Then 20 nM [^3H]PAF was added as listed in table 1 to start the reaction and incubated for a further 10 min at 37° C. After that, 600 μl of CHCl3/MeOH (2:1) was added and the resulting mixture was vortex mixed and the reaction was stopped. After settled for a while, the mixture was centrifugated at 12000×g for 15 min. The supernatant was transferred to a new tube and 200 μl of CHCl3 was added. The mixture was mixed by vortexing and then settled or centrifugated for 2 min. A 100 μl portion of the supernatant was then collected for radioactivity intensity measurement.
The inhibition rate was determined by the following equation:
Inhibitory rate (%)=1−(DPMcompound tube−DPMblank tube)/(DPMcontrol tube−DPMblank tube)*100%
(Note: DPM is radioactivity intensity unit.)

The target of the next test is T2, Lp-PLA2 in human serum (Homo sapiens, UniProt Q13093).
T2 construct: from tissue
T2 sequence (Q13093 22-441): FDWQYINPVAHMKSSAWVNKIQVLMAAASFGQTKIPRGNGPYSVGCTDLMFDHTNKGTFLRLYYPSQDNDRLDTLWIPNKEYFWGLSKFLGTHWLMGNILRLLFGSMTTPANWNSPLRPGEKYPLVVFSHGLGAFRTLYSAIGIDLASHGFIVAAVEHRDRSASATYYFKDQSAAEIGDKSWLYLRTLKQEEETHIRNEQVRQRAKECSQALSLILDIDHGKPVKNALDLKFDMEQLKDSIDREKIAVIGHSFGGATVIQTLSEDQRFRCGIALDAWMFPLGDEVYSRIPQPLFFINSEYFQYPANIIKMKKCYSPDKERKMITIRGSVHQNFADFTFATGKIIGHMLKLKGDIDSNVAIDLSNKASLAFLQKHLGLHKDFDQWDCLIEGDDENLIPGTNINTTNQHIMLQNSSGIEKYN
Kind of test: In vitro inhibitory activity towards the enzyme Lp-PLA2 in human serum, [3H]PAF substrate. Type of test: biochemical. The method, then:
as §1, with “mmol/l” for “mmol/L”, “human plasma” for “rabbit serum”, “was” for “was vortex”, “with vortex.” for “and the reaction was stopped.”, “added and mixed by vortexing.” for “added.”, “was” for “was mixed by vortexing and then”

[1] abbreviates: 100 nM, rabbit serum, read-out: inhibition, %.
[2] abbreviates: 10 nM, human serum, read-out: inhibition, %.
[3] abbreviates: 100 nM, read-out: inhibitory rate towards the rabbit serum derived Lp-PLA2 enzyme.
[4] abbreviates: 10 nM, read-out: inhibitory rate towards the human serum derived Lp-PLA2 enzyme.

Structures are written as SMILES. Where two headings read alike, the source gives them in different places.

The values below come from patent US20140171431A1, “AZOLE HETEROCYCLIC COMPOUND, PREPARATION METHOD, PHARMACEUTICAL COMPOSITION AND USE” (priority 2011, published 2014).

In the case of `O=c1nc(SCc2ccc(F)cc2)n(Cc2ncc(CN3CCN(Cc4ccccc4)CC3)n2Cc2ccc(-c3ccc(C(F)(F)F)cc3)cc2)c2c1CCC2` [Example 45, 1-((5-((4-benzylpiperazin-1-yl)methyl)-1-((4′-(trifluoromethyl)biphenyl-4-yl)methyl)-1H-imidazol-2-yl)methyl)-2-(4-fluorobenzylthio)-6,7-dihydro-1H-cyclopenta[d]pyrimidin-4(5H)-one], the inhibition at 0.1 µM was determined as 87% at Lp-PLA2 in rabbit serum (setting [1]) and 90% against Lp-PLA2 in human serum (100 nM, human serum). In addition, the inhibition at 0.01 µM at Lp-PLA2 in human serum (setting [2]) is 56%.

On to `CN(C)Cc1cnc(Cn2c(SCc3ccc(F)cc3)nc(=O)c3c2CCC3)n1Cc1ccc(-c2ccc(C(F)(F)F)cc2)cc1` [Example 46, 1-((5-((dimethylamino)methyl)-1-((4′-(trifluoromethyl)biphenyl-4-yl)methyl)-1H-imidazol-2-yl)methyl)-2-(4-fluorobenzylthio)-6,7-dihydro-1H-cyclopenta[d]pyrimidin-4(5H)-one], for which the inhibition at 0.1 µM at Lp-PLA2 in rabbit serum (setting [1]) was found to be 87.1%; against Lp-PLA2 in human serum (100 nM, human serum), 89%. Moreover, the inhibition at 1 µM against Lp-PLA2 in rabbit serum (rabbit serum) came out at 97.2%. Moreover, the inhibition at 0.01 µM on Lp-PLA2 in human serum (setting [2]) was 75%.

As to `C[N+](C)(Cc1ccc(F)cc1)Cc1cnc(Cn2c(SCc3ccc(F)cc3)nc(=O)c3c2CCC3)n1Cc1ccc(-c2ccc(C(F)(F)F)cc2)cc1` [Example 47, N-(4-fluorobenzyl)-1-(2-((2-(4-fluorobenzylthio)-4-oxo-4,5,6,7-tetrahydro-1H-cyclopenta[d]pyrimidin-1-yl)methyl)-1-((4′-(trifluoromethyl)biphenyl-4-yl)methyl)-1H-imidazol-5-yl)-N,N-dimethylmethanaminium bromide], the inhibition at 0.1 µM at Lp-PLA2 in rabbit serum (setting [1]) was 96.9%; at Lp-PLA2 in rabbit serum (setting [3]), more than 90%; against Lp-PLA2 in human serum (100 nM, human serum), 99%. Also, at Lp-PLA2 in rabbit serum (rabbit serum), the inhibition at 1 µM is 98.6%. Further, the inhibition at 0.01 µM at Lp-PLA2 in human serum (setting [2]) is 93%; at Lp-PLA2 in human serum (setting [4]), more than 80%.

Consider `CN(C)C(=O)c1cnc(Cn2c(SCc3ccc(F)cc3)nc(=O)c3c2CCC3)n1Cc1ccc(-c2ccc(C(F)(F)F)cc2)cc1` [Example 52, 2-((2-(4-fluorobenzylthio)-4-oxo-4,5,6,7-tetrahydro-1H-cyclopenta[d]pyrimidin-1-yl)methyl)-N,N-dimethyl-1-((4′-(trifluoromethyl)biphenyl-4-yl)methyl)-1H-imid azole-5-carboxamide], for which the inhibition at 0.1 µM at Lp-PLA2 in rabbit serum (setting [1]) was 90%; at Lp-PLA2 in rabbit serum (setting [3]) it was more than 90%; at Lp-PLA2 in human serum (100 nM, human serum), 99%. Moreover, the inhibition at 0.01 µM at Lp-PLA2 in human serum (setting [2]) is 97%; on Lp-PLA2 in human serum (setting [4]), more than 80%.

Take `O=c1nc(SCc2ccc(F)cc2)n(Cc2ncn(Cc3ccc(-c4ccc(C(F)(F)F)cc4)cc3)n2)c2c1CCC2` [Example 61, 2-(4-fluorobenzylthio)-1-((1-((4′-(trifluoromethyl)biphenyl-4-yl)methyl)-1H-1,2,4-triazol-3-yl)methyl)-6,7-dihydro-1H-cyclopenta[d]pyrimidin-4(5H)-one]: the inhibition at 0.1 µM at Lp-PLA2 in rabbit serum (setting [1]) worked out at 61%; at Lp-PLA2 in human serum (100 nM, human serum) it was 91%. The inhibition at 0.01 µM on Lp-PLA2 in human serum (setting [2]) came to 59%.

`COC(=O)CN(C)Cc1nnc(Cn2c(SCc3ccc(F)cc3)nc(=O)c3c2CCC3)n1Cc1ccc(-c2ccc(C(F)(F)F)cc2)cc1` [Example 62, methyl 2-(((5-((2-(4-fluorobenzylthio)-4-oxo-4,5,6,7-tetrahydro-1H-cyclopenta[d]pyrimidin-1-yl)methyl)-4-((4′-(trifluoromethyl)biphenyl-4-yl)methyl)-4H-1,2,4-triazol-3-yl)methyl)(methyl)amino)acetate]: the “inhibition, %” value on Lp-PLA2 in rabbit serum (100 nM, rabbit serum, 0.1 µM) is 73.8%; against Lp-PLA2 in human serum (10 nM, human serum, 0.01 µM), 76%; at Lp-PLA2 in human serum (100 nM, human serum, 0.1 µM) it was 94%. For the same molecule, the inhibition at 0.1 µM was found to be 81.9% on Lp-PLA2 in rabbit serum (setting [1]) and 96% against Lp-PLA2 in human serum (100 nM, human serum). On Lp-PLA2 in human serum (setting [2]), the inhibition at 0.01 µM turned out to be 83%.

With `Cc1nnc(Cn2c(SCc3ccc(F)cc3)nc(=O)c3c2CCC3)n1Cc1ccc(-c2ccc(C(F)(F)F)cc2)cc1` [Example 64, 2-(4-fluorobenzylthio)-1-((5-methyl-4-((4′-(trifluoromethyl)biphenyl-4-yl)methyl)-4H-1,2,4-triazol-3-yl)methyl)-6,7-dihydro-1H-cyclopenta[d]pyrimidin-4(5H)-one], the inhibition at 0.1 µM on Lp-PLA2 in rabbit serum (setting [1]) was 78.9%; at Lp-PLA2 in human serum (100 nM, human serum), 93%. Further, at Lp-PLA2 in human serum (setting [2]), the inhibition at 0.01 µM was found to be 73%.

Turning to `Cc1nnc(Cn2cc(Cc3cnn(C)c3)c(=O)nc2SCc2ccc(F)cc2)n1Cc1ccc(-c2ccc(C(F)(F)F)cc2)cc1` [Example 65, 2-(4-fluorobenzylthio)-5-((1-methyl-1H-pyrazol-4-yl)methyl)-1-((5-methyl-4-((4′-(trifluoromethyl)biphenyl-4-yl)methyl)-4H-1,2,4-triazol-3-yl)methyl)pyrimidin-4(1H)-one], the inhibition at 0.1 µM at Lp-PLA2 in rabbit serum (setting [1]) was found to be 60%; on Lp-PLA2 in human serum (100 nM, human serum), 96%. The inhibition at 0.01 µM at Lp-PLA2 in human serum (setting [2]) came out at 82%.

Turning to `CCCc1nnc(Cn2c(SCc3ccc(F)cc3)nc(=O)c3c2CCC3)n1Cc1ccc(-c2ccc(C(F)(F)F)cc2)cc1` [Example 66, 2-(4-fluorobenzylthio)-1-((5-propyl-4-((4′-(trifluoromethyl)biphenyl-4-yl)methyl)-4H-1,2,4-triazol-3-yl)methyl)-6,7-dihydro-1H-cyclopenta[d]pyrimidin-4(5H)-one], the inhibition at 0.1 µM was found to be 88% on Lp-PLA2 in rabbit serum (setting [1]) and 98% against Lp-PLA2 in human serum (100 nM, human serum). Also, on Lp-PLA2 in human serum (setting [2]), the inhibition at 0.01 µM is 88%.

For the molecule `CC(C)c1nnc(Cn2c(SCc3ccc(F)cc3)nc(=O)c3c2CCC3)n1Cc1ccc(-c2ccc(C(F)(F)F)cc2)cc1` [Example 67, 2-(4-fluorobenzylthio)-1-((5-isopropyl-4-((4′-(trifluoromethyl)biphenyl-4-yl)methyl)-4H-1,2,4-triazol-3-yl)methyl)-6,7-dihydro-1H-cyclopenta[d]pyrimidin-4(5H)-one], the inhibition at 0.1 µM at Lp-PLA2 in rabbit serum (setting [1]) was 91%; on Lp-PLA2 in rabbit serum (setting [3]) it was more than 90%; against Lp-PLA2 in human serum (100 nM, human serum), 98%. Also, the values for the inhibition at 0.01 µM at Lp-PLA2 in human serum (setting [2]) and on Lp-PLA2 in human serum (setting [4]) were 92% and more than 80%, respectively.

Regarding `O=c1nc(SCc2ccc(F)cc2)n(Cc2nnc(C3CC3)n2Cc2ccc(-c3ccc(C(F)(F)F)cc3)cc2)c2c1CCC2` [Example 68, 1-((5-cyclopropyl-4-((4′-(trifluoromethyl)biphenyl-4-yl)methyl)-4H-1,2,4-triazol-3-yl)methyl)-2-(4-fluorobenzylthio)-6,7-dihydro-1H-cyclopenta[d]pyrimidin-4(5 H)-one], the inhibition at 0.1 µM at Lp-PLA2 in rabbit serum (setting [1]) was found to be 34%; against Lp-PLA2 in human serum (100 nM, human serum) it was 97%. Also, at Lp-PLA2 in rabbit serum (rabbit serum), the inhibition at 1 µM was determined as 87%. The inhibition at 0.01 µM at Lp-PLA2 in human serum (setting [2]) worked out at 93%.

For `O=c1nc(SCc2ccc(F)cc2)n(Cc2nnc(CS(=O)(=O)Cc3ccccc3)n2Cc2ccc(-c3ccc(C(F)(F)F)cc3)cc2)c2c1CCC2` [Example 69, 1-((5-(benzylsulfonylmethyl)-4-((4′-(trifluoromethyl)biphenyl-4-yl)methyl)-4H-1,2,4-triazol-3-yl)methyl)-2-(4-fluorobenzylthio)-6,7-dihydro-1H-cyclopenta[d]pyrimidin-4(5H)-one], the inhibition at 0.1 µM at Lp-PLA2 in rabbit serum (setting [1]) was 89%; at Lp-PLA2 in human serum (100 nM, human serum), 97%. In addition, the inhibition at 0.01 µM at Lp-PLA2 in human serum (setting [2]) was found to be 87%.
